How the values were obtained:
[1] = compound: C=CC(=O)Nc1ccc(C(=O)Nc2[nH]nc3c2CN(C(=O)N[C@H](CN(C)C)c2ccccc2)C3(C)C)cc1 [YKL-5-124]
[2] = compound: CC(=O)Nc1cccc(-n2c(=O)n(C3CC3)c(=O)c3c(Nc4ccc(I)cc4F)n(C)c(=O)c(C)c32)c1
[3] = compound: CC1=CN2C(=O)C=C(N=C2C(=C1)C(C)NC3=CC=CC=C3)N4CCOCC4 [TGX221]
[4] = compound: CCC(=O)Nc1ccc(C(=O)Nc2ccc(Nc3ncc4c(n3)N(C)c3ccc(C)cc3C(=O)N4C)cc2)cc1 [FMF-03-145-1]
[5] = compound: CCN1CCN(Cc2ccc(Nc3ncc(F)c(-c4cc(F)c5nc(C)n(C(C)C)c5c4)n3)nc2)CC1
[6] = compound: CN(C)C/C=C/C(=O)Nc1ccc(C(=O)N2CCC[C@@H](Nc3ncc(Cl)c(-c4c[nH]c5ccccc45)n3)C2)cc1 [THZ531]
[7] = compound: CO[C@H]1C[C@@H]2CC[C@@H](C)[C@@](O)(O2)C(=O)C(=O)N2CCCC[C@H]2C(=O)O[C@H]([C@H](C)C[C@@H]2CC[C@@H](OCCO)[C@H](OC)C2)CC(=O)[C@H](C)/C=C(\C)[C@@H](O)[C@@H](OC)C(=O)[C@H](C)C[C@H](C)/C=C/C=C/C=C/1C [Everolimus]
[8] = compound: COc1cccc(OCCCN)c1-c1cc(Nc2cnc(C#N)cn2)n[nH]1
[9] = compound: C[C@@H]1COCCN1c1cc(C2([S@](C)(=N)=O)CC2)nc(-c2cc[nH]c3nccc2-3)n1 [AZD6738]
[10] = compound: C1=CC2=C(C=CC(=C2)C=C3C(=O)NC(=NCC4=CC=CS4)S3)N=C1 [R0-3306]; test: increase in dead-cell fraction, 72 h; higher = more death;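 further: breast cancer cell lines in 384-well plates, stained with Hoechst plus LIVE/DEAD far red dye and imaged, cells above an LDR intensity threshold counted dead, Hoechst-negative corpses included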
[11] = compound: CC(C)n1nc(-c2ccc3oc(N)nc3c2)c2c(N)ncnc21 [INK128/MLN0128]; test: as above
[12] = compound: COc1cccc(OCCCN)c1-c1cc(Nc2cnc(C#N)cn2)n[nH]1; test: as above
[13] = compound: Cc1nc(NC(=O)N2CCC[C@H]2C(N)=O)sc1-c1ccnc(C(C)(C)C(F)(F)F)c1 [Alpelisib/BYL719]; test: as above
[14] = compound: Nc1cc(C(F)(F)F)c(-c2cc(N3CCOCC3)nc(N3CCOCC3)n2)cn1 [Buparlisib/NVP-BKM120]; test: as above
[15] = compound: O=C1NC(=O)[C@@H](c2cn3c4c(cccc24)CCC3)[C@@H]1c1c[nH]c2ccccc12 [Tivantinib/ARQ197]; test: as above
[16] = compound: CC1=C(N=C(N=C1N)[C@H](CC(=O)N)NC[C@@H](C(=O)N)N)C(=O)N[C@@H]([C@H](C2=CN=CN2)OC3C(C(C(C(O3)CO)O)O)OC4C(C(C(C(O4)CO)O)OC(=O)N)O)C(=O)N[C@H](C)[C@H]([C@H](C)C(=O)N[C@@H]([C@@H](C)O)C(=O)NCCC5=NC(=CS5)C6=NC(=CS6)C(=O)NCCC[S+](C)C)O [Bleomycin]; conditions: main component drawn
[17] = compound: CC[C@@]1(O)C(=O)OCc2c1cc1n(c2=O)Cc2cc3c(CN(C)C)c(O)ccc3nc2-1 [Topotecan]
[18] = compound: COc1cc([C@@H]2c3cc4c(cc3[C@@H](O[C@@H]3O[C@@H]5CO[C@@H](C)O[C@H]5[C@H](O)[C@H]3O)[C@H]3COC(=O)[C@H]23)OCO4)cc(OC)c1O [Etoposide]
[19] = compound: N.N.Cl[Pt]Cl [Cisplatin]
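Wherever GR50, 72 h is given: breast cancer and non-malignant breast epithelial cell lines, Deep Dye Drop or Dye Drop imaging, nine half-log doses, GR normalized to time-zero plates and DMSO-only controls.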

## AU565
[1]
  GR50, 72 h: < 0.001 µM
[2]
  GR50, 72 h: > 1 µM
[3]
  GR50, 72 h: > 10 µM
[4]
  GR50, 72 h: 0.00474 µM
[5]
  GR50, 72 h: 0.0308 µM
[6]
  GR50, 72 h: 0.055 µM
[7]
  GR50, 72 h: 0.00185 µM
[8]
  GR50, 72 h: 0.000768 µM
[9]
  GR50, 72 h: 8.56 µM
[10]; 0.001 µM
  increase in dead-cell fraction: -0.0007
[10]; 0.003162 µM
  increase in dead-cell fraction: 0.0211
[10]; 0.01 µM
  increase in dead-cell fraction: 0.0272
[10]; 0.03162 µM
  increase in dead-cell fraction: 0.005
[10]; 0.1 µM
  increase in dead-cell fraction: 0.0121
[10]; 0.3162 µM
  increase in dead-cell fraction: 0.0139
[10]; 1 µM
  increase in dead-cell fraction: 0.0267
[10]; 3.162 µM
  increase in dead-cell fraction: 0.0545
[10]; 10 µM
  increase in dead-cell fraction: 0.329
[11]; 0.0003162 µM
  increase in dead-cell fraction: 0.0039
[11]; 0.001 µM
  increase in dead-cell fraction: 0.0034
[11]; 0.003162 µM
  increase in dead-cell fraction: 0.0155
[11]; 0.01 µM
  increase in dead-cell fraction: 0.0233
[11]; 0.03162 µM
  increase in dead-cell fraction: 0.0367
[11]; 0.1 µM
  increase in dead-cell fraction: 0.0543
[11]; 0.3162 µM
  increase in dead-cell fraction: 0.0671
[11]; 1 µM
  increase in dead-cell fraction: 0.084
[11]; 3.162 µM
  increase in dead-cell fraction: 0.244
[12]; 10 pM
  increase in dead-cell fraction: -0.002
[12]; 31.6 pM
  increase in dead-cell fraction: -0.0013
[12]; 0.0001 µM
  increase in dead-cell fraction: -0.0035
[12]; 0.0003162 µM
  increase in dead-cell fraction: -0.0022
[12]; 0.001 µM
  increase in dead-cell fraction: 0.139
[12]; 0.003162 µM
  increase in dead-cell fraction: 0.168
[12]; 0.01 µM
  increase in dead-cell fraction: 0.194
[12]; 0.03162 µM
  increase in dead-cell fraction: 0.187
[12]; 0.1 µM
  increase in dead-cell fraction: 0.211
[13]; 0.001 µM
  increase in dead-cell fraction: 0.0064
[13]; 0.003162 µM
  increase in dead-cell fraction: 0.0041
[13]; 0.01 µM
  increase in dead-cell fraction: 0.0062
[13]; 0.03162 µM
  increase in dead-cell fraction: 0.0114
[13]; 0.1 µM
  increase in dead-cell fraction: 0.0193
[13]; 0.3162 µM
  increase in dead-cell fraction: 0.0259
[13]; 1 µM
  increase in dead-cell fraction: 0.0468
[13]; 3.162 µM
  increase in dead-cell fraction: 0.0789
[13]; 10 µM
  increase in dead-cell fraction: 0.222
[14]; 0.001 µM
  increase in dead-cell fraction: -0.0006
[14]; 0.003162 µM
  increase in dead-cell fraction: 0.0058
[14]; 0.01 µM
  increase in dead-cell fraction: 0.0024
[14]; 0.03162 µM
  increase in dead-cell fraction: 0.0055
[14]; 0.1 µM
  increase in dead-cell fraction: 0.0187
[14]; 0.3162 µM
  increase in dead-cell fraction: 0.043
[14]; 1 µM
  increase in dead-cell fraction: 0.189
[14]; 3.162 µM
  increase in dead-cell fraction: 0.273
[14]; 10 µM
  increase in dead-cell fraction: 0.227
[15]; 0.001 µM
  increase in dead-cell fraction: -0.0007
[15]; 0.003162 µM
  increase in dead-cell fraction: -0.0033
[15]; 0.01 µM
  increase in dead-cell fraction: -0.0012
[15]; 0.03162 µM
  increase in dead-cell fraction: -0.0029
[15]; 0.1 µM
  increase in dead-cell fraction: 0.0087
[15]; 0.3162 µM
  increase in dead-cell fraction: 0.0601
[15]; 1 µM
  increase in dead-cell fraction: 0.263
[15]; 3.162 µM
  increase in dead-cell fraction: 0.306
[15]; 10 µM
  increase in dead-cell fraction: 0.3

## HCC1143
[1]
  GR50, 72 h: < 0.001 µM
[2]
  GR50, 72 h: 0.00883 µM
[16]
  GR50, 72 h: 0.0482 µM
[3]
  GR50, 72 h: > 10 µM
[4]
  GR50, 72 h: 0.00583 µM
[5]
  GR50, 72 h: 0.0703 µM
[17]
  GR50, 72 h: 0.00941 µM
[6]
  GR50, 72 h: 0.131 µM
[7]
  GR50, 72 h: > 10 µM
[18]
  GR50, 72 h: 0.463 µM
[8]
  GR50, 72 h: 0.000582 µM
[9]
  GR50, 72 h: 5.13 µM
[19]
  GR50, 72 h: 0.837 µM

## MDAMB361
[1]
  GR50, 72 h: < 0.001 µM
[2]
  GR50, 72 h: > 1 µM
[16]
  GR50, 72 h: 0.758 µM
[3]
  GR50, 72 h: > 10 µM
[4]
  GR50, 72 h: 0.00904 µM
[5]
  GR50, 72 h: 0.00535 µM
[17]
  GR50, 72 h: 0.0114 µM
[6]
  GR50, 72 h: 0.0273 µM
[7]
  GR50, 72 h: < 0.001 µM
[18]
  GR50, 72 h: 1.19 µM
[8]
  GR50, 72 h: 0.000459 µM
[9]
  GR50, 72 h: 4.79 µM
[19]
  GR50, 72 h: 2.63 µM
